The record followed here is PubChem BioAssay (NCI).

Test systems include A549 NSCLC; ACHN renal; COLO 205 colon; SK-MEL-5 melanoma; UACC-257 melanoma; UACC-62 melanoma; A498 renal; HL-60(TB) leukemia; HOP-92 NSCLC; SR leukemia.
Test in all cases: NCI-60 cell line screen, 48 h

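A five-concentration, 48-hour dose response in 96-well plates underlies each endpoint, interpolated linearly between surrounding concentrations. GI50 = concentration required for 50% inhibition of growth. TGI denotes the concentration required for complete inhibition of growth.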

On to `O=C1C=Cc2c1ccc1ccccc21`, for which the GI50 in the experiment on A549 NSCLC is 18.3 µM; in the experiment on ACHN renal it was 17.1 µM; in the experiment with COLO 205 colon, 30.9 µM; with SK-MEL-5 melanoma, 21.1 µM; in the experiment with UACC-257 melanoma, 50.2 µM; with UACC-62 melanoma, 9.66 µM. Besides, the TGI in the experiment on A549 NSCLC was 65.8 µM; with ACHN renal it was 58.7 µM; with COLO 205 colon it was more than 100 µM; in the experiment on SK-MEL-5 melanoma it was 71 µM; with UACC-257 melanoma, more than 100 µM; with UACC-62 melanoma, 70.9 µM.
As to `O=C(Nc1ccccc1-c1nn(CN2CCNCC2)c(=S)n(CN2CCNCC2)c1=O)C(F)(F)F`, the TGI worked out at 35.3 µM in the experiment with A498 renal; 52.4 µM with A549 NSCLC; 63.9 µM in the experiment with ACHN renal; 31 µM with COLO 205 colon; 43.2 µM with HL-60(TB) leukemia; 45.8 µM in the experiment with HOP-92 NSCLC. Further, the TGI in the experiment with SK-MEL-5 melanoma was 31 µM; in the experiment with UACC-257 melanoma, 31 µM; in the experiment with UACC-62 melanoma, 32.5 µM.
`O=C1CNC(=O)c2[nH]cnc2N1`: the TGI with A498 renal, in the experiment on A549 NSCLC, with ACHN renal, with COLO 205 colon, in the experiment on HL-60(TB) leukemia and in the experiment on SK-MEL-5 melanoma was more than 100 µM throughout. Besides, the TGI with SR leukemia and in the experiment on UACC-62 melanoma was more than 100 µM throughout.
As for `N#CC(C#N)=Cc1ccc(CP(=O)(O)O)cc1`, the TGI in the experiment on A498 renal, with A549 NSCLC, in the experiment on ACHN renal, with COLO 205 colon, in the experiment on HL-60(TB) leukemia and in the experiment on HOP-92 NSCLC was more than 100 µM in each case. For the same compound, the TGI in the experiment with SK-MEL-5 melanoma, in the experiment on UACC-257 melanoma and in the experiment on UACC-62 melanoma was more than 100 µM throughout.
In the case of `CC(=O)NNc1nc(C)c(C(=O)/C=C/c2ccc(Cl)cc2)s1`, the TGI with A498 renal, with A549 NSCLC, in the experiment with ACHN renal, in the experiment with COLO 205 colon, in the experiment with HL-60(TB) leukemia and in the experiment on HOP-92 NSCLC was more than 100 µM in each case. The TGI in the experiment on SK-MEL-5 melanoma, with UACC-257 melanoma and in the experiment with UACC-62 melanoma was more than 100 µM throughout.
With `COc1cc(C(=O)O[C@H](C(=O)NCCN(C)CCNC(=O)[C@@H](OC(=O)c2cc(OC)cc3c(C)cccc23)[C@]2(C)CO2)[C@]2(C)CO2)c2cccc(C)c2c1`, the GI50 is 0.888 µM with A498 renal; 0.0391 µM in the experiment on COLO 205 colon; 0.0192 µM in the experiment on HOP-92 NSCLC; 0.0173 µM in the experiment on SK-MEL-5 melanoma; 0.416 µM with UACC-257 melanoma; 0.154 µM in the experiment on UACC-62 melanoma. Also, the TGI is 2.82 µM in the experiment on A498 renal; 1.55 µM in the experiment with COLO 205 colon; 0.173 µM with HOP-92 NSCLC; 0.178 µM in the experiment with SK-MEL-5 melanoma; 2.38 µM with UACC-257 melanoma; 0.338 µM in the experiment on UACC-62 melanoma.
Turning to `O=c1oc2cc(OC/C(=N/O)c3ccc(F)cc3)ccc2c2ccccc12`, the GI50 in the experiment on A498 renal is 22 µM; in the experiment on A549 NSCLC it was 18.2 µM; in the experiment on ACHN renal, 20.4 µM; in the experiment with COLO 205 colon, 25.3 µM; with HOP-92 NSCLC, 23.6 µM; with SK-MEL-5 melanoma it was 20.9 µM. Further, the GI50 with SR leukemia is 26.6 µM; in the experiment on UACC-257 melanoma, 22.9 µM; in the experiment with UACC-62 melanoma, 17.6 µM. The TGI in the experiment on A498 renal worked out at 37.7 µM; in the experiment with A549 NSCLC, 45.7 µM; in the experiment with ACHN renal, 41.6 µM; in the experiment on COLO 205 colon, 61.4 µM; in the experiment on HOP-92 NSCLC it was 52.8 µM; in the experiment with SK-MEL-5 melanoma it was 36.3 µM. Besides, the TGI with SR leukemia came out at 69.2 µM; with UACC-257 melanoma, 39.4 µM; in the experiment with UACC-62 melanoma, 33 µM.
In the case of `CCCCc1c2cnccc2c(CCCC)c2c1[nH]c1ccccc12`, the TGI with A498 renal was 35.2 µM; in the experiment on A549 NSCLC, 29.5 µM; in the experiment with ACHN renal, 30.6 µM; in the experiment with COLO 205 colon it was 27.4 µM; in the experiment with HOP-92 NSCLC it was 47.7 µM; in the experiment with UACC-257 melanoma it was 36 µM. Further, the TGI in the experiment on UACC-62 melanoma worked out at 23.7 µM.
In the case of `C[C@]12CC[C@H]3[C@@H](CC4SC(N)=NC45C/C(=N/NC(N)=O)CC[C@]35C)[C@@H]1CCC2=O` (stereo partly specified), the GI50 is 2.1 µM in the experiment with A498 renal; 2.02 µM in the experiment on A549 NSCLC; 1.8 µM in the experiment on ACHN renal; 2.06 µM in the experiment with COLO 205 colon; 2.73 µM in the experiment with HL-60(TB) leukemia; 1.51 µM in the experiment on HOP-92 NSCLC. The GI50 was 1.57 µM in the experiment on SK-MEL-5 melanoma, 2.4 µM with UACC-257 melanoma and 1.63 µM in the experiment with UACC-62 melanoma. Further, the TGI in the experiment on A498 renal came to 6.83 µM; with A549 NSCLC, 3.89 µM; with ACHN renal, 3.19 µM; with COLO 205 colon, 4.37 µM; with HL-60(TB) leukemia, 7.95 µM; in the experiment with HOP-92 NSCLC, 3.16 µM. In addition, the TGI in the experiment with SK-MEL-5 melanoma stood at 2.97 µM; with UACC-257 melanoma, 5.83 µM; in the experiment with UACC-62 melanoma, 3.13 µM.
Regarding `COc1ccc2oc(-c3ccc(OC)c(OC)c3OC)cc(=O)c2c1`, the TGI is more than 100 µM with A549 NSCLC; more than 100 µM in the experiment on ACHN renal; more than 100 µM in the experiment on COLO 205 colon; 55 µM with HL-60(TB) leukemia; more than 100 µM in the experiment on HOP-92 NSCLC; more than 100 µM in the experiment on UACC-257 melanoma. Besides, in the experiment on UACC-62 melanoma, the TGI was more than 100 µM.
For `COc1cc(OC)c(OC)cc1/C=C/c1cnnc2ccccc12`, the TGI with A498 renal, in the experiment with A549 NSCLC, in the experiment on ACHN renal, with COLO 205 colon, with HL-60(TB) leukemia and in the experiment on HOP-92 NSCLC was more than 10 µM each time. For the same compound, the TGI with SK-MEL-5 melanoma, in the experiment on UACC-257 melanoma and with UACC-62 melanoma was more than 10 µM throughout.
Regarding `CC(C)=CC(=O)N[C@H]1CC[C@]2(C)C3CC[C@]4(C)C(C(C)N(C)C)=CCC4C3CCC2[C@H]1O` (stereo partly specified), the GI50 in the experiment with A498 renal was 3.82 µM; in the experiment with A549 NSCLC it was 5.92 µM; with ACHN renal, 7.95 µM; in the experiment on COLO 205 colon, 1.69 µM; with HL-60(TB) leukemia, 3.34 µM; with HOP-92 NSCLC, 7.72 µM. The GI50 in the experiment on SK-MEL-5 melanoma was 1.48 µM; in the experiment on UACC-257 melanoma it was 2.39 µM; with UACC-62 melanoma, 1.95 µM. Besides, the TGI with A498 renal worked out at 16.6 µM; with A549 NSCLC it was 22.9 µM; in the experiment with ACHN renal it was 21.3 µM; in the experiment with COLO 205 colon it was 3.3 µM; with HL-60(TB) leukemia, 9.11 µM; in the experiment with HOP-92 NSCLC, 22 µM. Also, the TGI in the experiment on SK-MEL-5 melanoma amounted to 2.95 µM; in the experiment on UACC-257 melanoma it was 5.59 µM; in the experiment on UACC-62 melanoma, 3.77 µM.
